These results are taken from patent US8614223B2, “Pyrimidine hydroxy amide compounds as protein deacetylase inhibitors and methods of use thereof” (Acetylon Pharmaceuticals, Inc., priority 2010, dated 2013).

pIC50: −log10 of the molar value.

One assay addresses HDAC6 (Homo sapiens (Human), UniProt Q9UBN7). Particulars: read-out: HDAC6 IC50.
A further assay deals with HDAC1 (Homo sapiens (Human), UniProt Q13547). Nature of the assay: HDAC enzyme assay, HDAC1. Particulars: for HDAC1 fold over HDAC6 IC50 (selectivity for HDAC6): ratio HDAC1/HDAC6; for pIC50: read-out: HDAC1 IC50.
The target in another assay is HDAC2 (Homo sapiens (Human), UniProt Q92769). Nature of the assay: HDAC enzyme assay, HDAC2. Particulars: for HDAC2 fold over HDAC6 IC50 (selectivity for HDAC6): ratio HDAC2/HDAC6; for pIC50: read-out: HDAC2 IC50.
The next assay has as its target HDAC3 (Homo sapiens (Human), UniProt O15379). Nature of the assay: HDAC enzyme assay, HDAC3. Particulars: for HDAC3 fold over HDAC6 IC50 (selectivity for HDAC6): ratio HDAC3/HDAC6; for pIC50: read-out: HDAC3 IC50.

Chain of HDAC2 (Q92769 whole entry): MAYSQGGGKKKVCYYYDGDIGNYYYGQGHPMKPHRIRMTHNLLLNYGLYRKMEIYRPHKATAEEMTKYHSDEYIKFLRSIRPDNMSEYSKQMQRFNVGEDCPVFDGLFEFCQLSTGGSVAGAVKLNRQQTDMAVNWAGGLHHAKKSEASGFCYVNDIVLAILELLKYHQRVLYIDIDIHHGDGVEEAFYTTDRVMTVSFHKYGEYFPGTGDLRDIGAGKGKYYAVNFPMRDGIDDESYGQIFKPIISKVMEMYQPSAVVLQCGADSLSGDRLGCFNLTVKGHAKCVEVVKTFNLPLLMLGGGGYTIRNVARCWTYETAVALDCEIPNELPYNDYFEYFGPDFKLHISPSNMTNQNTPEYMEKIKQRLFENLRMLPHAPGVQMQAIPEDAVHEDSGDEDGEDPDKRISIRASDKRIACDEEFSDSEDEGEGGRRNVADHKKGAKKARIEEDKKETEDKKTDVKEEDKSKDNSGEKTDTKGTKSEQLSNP
Chain of HDAC1 (Q13547 whole entry): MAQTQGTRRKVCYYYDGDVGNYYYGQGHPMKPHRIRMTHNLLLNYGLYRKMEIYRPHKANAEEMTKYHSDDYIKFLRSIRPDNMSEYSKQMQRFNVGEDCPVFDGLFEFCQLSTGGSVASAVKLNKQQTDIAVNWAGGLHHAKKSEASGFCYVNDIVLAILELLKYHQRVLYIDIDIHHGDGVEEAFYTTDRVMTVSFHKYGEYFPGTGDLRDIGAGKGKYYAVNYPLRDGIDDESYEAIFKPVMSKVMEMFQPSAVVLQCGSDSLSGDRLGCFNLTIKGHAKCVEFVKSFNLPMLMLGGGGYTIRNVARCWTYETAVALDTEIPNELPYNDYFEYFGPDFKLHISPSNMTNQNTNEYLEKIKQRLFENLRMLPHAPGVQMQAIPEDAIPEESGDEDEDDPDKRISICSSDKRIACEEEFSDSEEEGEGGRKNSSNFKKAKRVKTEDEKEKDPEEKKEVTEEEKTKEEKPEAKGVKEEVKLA
Chain of HDAC6 (Q9UBN7 whole entry): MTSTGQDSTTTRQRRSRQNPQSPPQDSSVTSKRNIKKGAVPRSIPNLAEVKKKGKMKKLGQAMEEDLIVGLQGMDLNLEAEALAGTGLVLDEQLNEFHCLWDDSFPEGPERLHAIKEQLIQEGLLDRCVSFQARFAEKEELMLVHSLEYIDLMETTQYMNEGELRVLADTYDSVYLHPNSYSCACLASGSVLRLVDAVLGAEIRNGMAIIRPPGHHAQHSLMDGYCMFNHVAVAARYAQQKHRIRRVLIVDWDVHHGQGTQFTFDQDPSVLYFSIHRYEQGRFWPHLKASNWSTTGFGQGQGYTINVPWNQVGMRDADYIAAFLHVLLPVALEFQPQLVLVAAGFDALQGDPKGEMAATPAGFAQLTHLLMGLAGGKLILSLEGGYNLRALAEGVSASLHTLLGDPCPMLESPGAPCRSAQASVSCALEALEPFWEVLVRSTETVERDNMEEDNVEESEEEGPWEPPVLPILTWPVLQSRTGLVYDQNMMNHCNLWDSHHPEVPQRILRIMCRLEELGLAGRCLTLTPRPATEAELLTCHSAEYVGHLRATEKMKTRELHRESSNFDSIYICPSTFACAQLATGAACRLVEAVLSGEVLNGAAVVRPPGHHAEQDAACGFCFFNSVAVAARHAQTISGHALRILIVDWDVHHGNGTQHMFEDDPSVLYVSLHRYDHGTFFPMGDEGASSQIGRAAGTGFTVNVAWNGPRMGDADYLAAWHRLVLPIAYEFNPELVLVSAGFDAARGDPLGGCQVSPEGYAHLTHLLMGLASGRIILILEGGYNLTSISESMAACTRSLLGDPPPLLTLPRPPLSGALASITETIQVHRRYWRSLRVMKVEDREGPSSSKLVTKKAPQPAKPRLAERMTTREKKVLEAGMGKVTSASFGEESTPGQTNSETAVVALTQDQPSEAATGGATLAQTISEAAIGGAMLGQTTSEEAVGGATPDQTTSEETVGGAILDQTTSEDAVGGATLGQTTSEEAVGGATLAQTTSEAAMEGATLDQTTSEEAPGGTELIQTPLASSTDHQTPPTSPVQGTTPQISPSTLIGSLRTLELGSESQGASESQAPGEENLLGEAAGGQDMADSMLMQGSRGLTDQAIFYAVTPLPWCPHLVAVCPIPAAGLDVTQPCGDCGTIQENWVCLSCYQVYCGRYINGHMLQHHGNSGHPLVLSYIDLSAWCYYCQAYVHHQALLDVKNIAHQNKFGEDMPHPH
Chain of HDAC3 (O15379 whole entry): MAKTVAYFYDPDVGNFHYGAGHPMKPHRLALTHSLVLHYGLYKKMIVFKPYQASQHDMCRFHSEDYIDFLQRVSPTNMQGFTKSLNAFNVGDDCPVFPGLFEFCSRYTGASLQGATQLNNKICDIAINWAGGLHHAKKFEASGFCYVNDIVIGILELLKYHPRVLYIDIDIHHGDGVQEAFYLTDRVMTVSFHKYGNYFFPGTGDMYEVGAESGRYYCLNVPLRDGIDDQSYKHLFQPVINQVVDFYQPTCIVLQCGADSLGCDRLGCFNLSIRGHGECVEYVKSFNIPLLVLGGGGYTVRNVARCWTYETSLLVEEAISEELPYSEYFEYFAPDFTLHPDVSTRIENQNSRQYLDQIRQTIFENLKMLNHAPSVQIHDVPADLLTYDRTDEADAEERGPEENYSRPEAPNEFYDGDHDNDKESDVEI
Chain of HDAC3 (Q9Y618 395-489 partner): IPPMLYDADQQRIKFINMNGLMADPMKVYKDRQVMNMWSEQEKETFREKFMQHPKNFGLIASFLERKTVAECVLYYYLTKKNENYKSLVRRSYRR

Take `COc1ccccc1CNc1ncc(C(=O)NO)cn1` [Compound 45]: the pIC50 at HDAC6 is 8.40. Moreover, at HDAC1, the “HDAC1 fold over HDAC6 IC50 (selectivity for HDAC6)” value was “(106.9x)” and the pIC50 was 6.42. Also, at HDAC2, the “HDAC2 fold over HDAC6 IC50 (selectivity for HDAC6)” value is recorded as “(148.5x)” and the pIC50 was 6.28. Besides, at HDAC3, the “HDAC3 fold over HDAC6 IC50 (selectivity for HDAC6)” value is listed as “(143.4x)” and the pIC50 is 6.30.

Take `O=C(NO)c1cnc(NCc2ccccc2OC(F)(F)F)nc1` [Compound 47]: the pIC50 at HDAC6 is 8.40. On HDAC1, the “HDAC1 fold over HDAC6 IC50 (selectivity for HDAC6)” value is recorded as “(55.8x)” and the pIC50 was 6.65. Moreover, on HDAC2, the “HDAC2 fold over HDAC6 IC50 (selectivity for HDAC6)” value is reported as “(86.7x)” and the pIC50 was 6.46. Moreover, at HDAC3, the “HDAC3 fold over HDAC6 IC50 (selectivity for HDAC6)” value is listed as “(75.1x)” and the pIC50 is 6.52.

Regarding `O=C(NO)c1cnc(NCc2c(Cl)cccc2Cl)nc1` [Compound 48], the pIC50 on HDAC6 was 8.15. Moreover, at HDAC1, the “HDAC1 fold over HDAC6 IC50 (selectivity for HDAC6)” value was “(48.8x)” and the pIC50 is 6.44. Besides, on HDAC2, the “HDAC2 fold over HDAC6 IC50 (selectivity for HDAC6)” value was “(80.8x)” and the pIC50 was 6.22. At HDAC3, the “HDAC3 fold over HDAC6 IC50 (selectivity for HDAC6)” value is reported as “(53.9x)” and the pIC50 is 6.40.

`CC(C)(Nc1ncc(C(=O)NO)cn1)c1ccccc1` [Compound 50]: the negative-log IC50 (pIC50) on HDAC6 was 8.40. In addition, at HDAC1, the “HDAC1 fold over HDAC6 IC50 (selectivity for HDAC6)” value was “(288.1x)” and the pIC50 is 5.93. On HDAC2, the “HDAC2 fold over HDAC6 IC50 (selectivity for HDAC6)” value is recorded as “(374.6x)” and the pIC50 is 5.82. Moreover, at HDAC3, the “HDAC3 fold over HDAC6 IC50 (selectivity for HDAC6)” value was “(547.1x)” and the pIC50 is 5.65.

Consider `O=C(NO)c1cnc(NCc2c(CO)cccc2CO)nc1` [Compound 51], for which the pIC50 was 7.96 at HDAC6, 6.33 on HDAC1, 6.20 on HDAC2 and 6.42 on HDAC3. Moreover, the “HDAC1 fold over HDAC6 IC50 (selectivity for HDAC6)” value at HDAC1 is “(41.2x)”. Besides, at HDAC2, the “HDAC2 fold over HDAC6 IC50 (selectivity for HDAC6)” value is listed as “(55x)”. Also, on HDAC3, the “HDAC3 fold over HDAC6 IC50 (selectivity for HDAC6)” value is listed as “(33.6x)”.

As to `O=C(NO)c1cnc(NCc2ccc(F)c(Cl)c2)nc1` [Compound 53], at HDAC6, the pIC50 is 8.70. At HDAC1, the “HDAC1 fold over HDAC6 IC50 (selectivity for HDAC6)” value is recorded as “(14.9x)” and the pIC50 is 7.62. On HDAC2, the “HDAC2 fold over HDAC6 IC50 (selectivity for HDAC6)” value is listed as “(19.2x)” and the pIC50 was 7.52. Besides, at HDAC3, the “HDAC3 fold over HDAC6 IC50 (selectivity for HDAC6)” value is given as “(27.2x)” and the pIC50 is 7.37.

As for `Cc1cccc(C)c1CNc1ncc(C(=O)NO)cn1` [Compound 54], the pIC50 at HDAC6 was 7.68. In addition, on HDAC1, the “HDAC1 fold over HDAC6 IC50 (selectivity for HDAC6)” value is “(64.4x)” and the pIC50 is 5.86. In addition, on HDAC2, the “HDAC2 fold over HDAC6 IC50 (selectivity for HDAC6)” value was “(98.9x)” and the pIC50 is 5.68. At HDAC3, the “HDAC3 fold over HDAC6 IC50 (selectivity for HDAC6)” value is listed as “(73.7x)” and the pIC50 was 5.80.

In the case of `O=C(NO)c1cnc(NCc2ccccc2-c2ccccc2)nc1` [Compound 55], the pIC50 at HDAC6 was 8.10. At HDAC1, the “HDAC1 fold over HDAC6 IC50 (selectivity for HDAC6)” value is on record as “(60.2x)” and the pIC50 is 6.34. For the same compound, at HDAC2, the “HDAC2 fold over HDAC6 IC50 (selectivity for HDAC6)” value is reported as “(76.8x)” and the pIC50 was 6.23. In addition, on HDAC3, the “HDAC3 fold over HDAC6 IC50 (selectivity for HDAC6)” value is on record as “(82.6x)” and the pIC50 was 6.20.

With `O=C(NO)c1cnc(NCc2ccc(F)cc2C(F)(F)F)nc1` [Compound 57], the pIC50 on HDAC6 was 8.22. For the same compound, at HDAC1, the “HDAC1 fold over HDAC6 IC50 (selectivity for HDAC6)” value is “(86x)” and the pIC50 was 6.28. In addition, at HDAC2, the “HDAC2 fold over HDAC6 IC50 (selectivity for HDAC6)” value is “(116.6x)” and the pIC50 is 6.15. In addition, on HDAC3, the “HDAC3 fold over HDAC6 IC50 (selectivity for HDAC6)” value is recorded as “(147.4x)” and the negative-log IC50 (pIC50) was 6.05.

Turning to `O=C(NO)c1cnc(NC23CC4CC(CC(C4)C2)C3)nc1` [Compound 58], at HDAC6, the pIC50 was 8.05. Also, on HDAC1, the “HDAC1 fold over HDAC6 IC50 (selectivity for HDAC6)” value was “(60.8x)” and the pIC50 is 6.26. For the same compound, on HDAC2, the “HDAC2 fold over HDAC6 IC50 (selectivity for HDAC6)” value was “(77.2x)” and the pIC50 was 6.15. Moreover, on HDAC3, the “HDAC3 fold over HDAC6 IC50 (selectivity for HDAC6)” value is “(119.5x)” and the pIC50 was 5.96.

Regarding `O=C(NO)c1cnc(NCCc2ccccc2-c2ccccc2)nc1` [Compound 59], the negative-log IC50 (pIC50) was 7.40 on HDAC6, 6.22 on HDAC1, 6.09 on HDAC2 and 6.06 at HDAC3. The “HDAC1 fold over HDAC6 IC50 (selectivity for HDAC6)” value at HDAC1 is “(15.3x)”. The “HDAC2 fold over HDAC6 IC50 (selectivity for HDAC6)” value on HDAC2 was “(20.5x)”. The “HDAC3 fold over HDAC6 IC50 (selectivity for HDAC6)” value on HDAC3 is reported as “(22x)”.

As to `O=C(NO)c1cnc(NC(c2ccccc2)c2ccccc2)nc1` [Compound 60], the pIC50 at HDAC6 is 8.70. For the same compound, at HDAC1, the “HDAC1 fold over HDAC6 IC50 (selectivity for HDAC6)” value is given as “(53.5x)” and the pIC50 is 6.89. Further, at HDAC2, the “HDAC2 fold over HDAC6 IC50 (selectivity for HDAC6)” value is on record as “(58.9x)” and the pIC50 is 6.85. Moreover, on HDAC3, the “HDAC3 fold over HDAC6 IC50 (selectivity for HDAC6)” value is given as “(98.1x)” and the pIC50 was 6.63.

For `O=C(NO)c1cnc(NCCc2c(Cl)cccc2Cl)nc1` [Compound 63], the pIC50 at HDAC6 is 7.72. Moreover, on HDAC1, the “HDAC1 fold over HDAC6 IC50 (selectivity for HDAC6)” value is recorded as “(77.6x)” and the pIC50 was 5.84. On HDAC2, the “HDAC2 fold over HDAC6 IC50 (selectivity for HDAC6)” value is listed as “(96.5x)” and the pIC50 is 5.75. Besides, at HDAC3, the “HDAC3 fold over HDAC6 IC50 (selectivity for HDAC6)” value is “(93.7x)” and the pIC50 is 5.76.

For the compound `CC(C)(Nc1ncc(C(=O)NO)cn1)c1ccc(F)cc1` [Compound 68], on HDAC6, the pIC50 is 8.52. Moreover, on HDAC1, the “HDAC1 fold over HDAC6 IC50 (selectivity for HDAC6)” value is on record as “(254.8x)” and the pIC50 is 6.12. At HDAC2, the “HDAC2 fold over HDAC6 IC50 (selectivity for HDAC6)” value is “(362.4x)” and the pIC50 is 5.97. On HDAC3, the “HDAC3 fold over HDAC6 IC50 (selectivity for HDAC6)” value is recorded as “(495.3x)” and the pIC50 is 5.83.

With `CC(C)(Nc1ncc(C(=O)NO)cn1)c1ccc(F)cc1F` [Compound 70], the pIC50 is 8.52 on HDAC6, 6.19 at HDAC1, 6.01 at HDAC2 and 5.88 on HDAC3. The “HDAC1 fold over HDAC6 IC50 (selectivity for HDAC6)” value on HDAC1 is on record as “(217.2x)”. Besides, the “HDAC2 fold over HDAC6 IC50 (selectivity for HDAC6)” value on HDAC2 was “(327.2x)”. For the same compound, on HDAC3, the “HDAC3 fold over HDAC6 IC50 (selectivity for HDAC6)” value was “(441.9x)”.

With `Cc1cc(F)ccc1C(C)(C)Nc1ncc(C(=O)NO)cn1` [Compound 72], the pIC50 at HDAC6 is 7.72. Further, at HDAC1, the “HDAC1 fold over HDAC6 IC50 (selectivity for HDAC6)” value is given as “(306.9x)” and the pIC50 was 5.24. Moreover, at HDAC2, the “HDAC2 fold over HDAC6 IC50 (selectivity for HDAC6)” value is recorded as “(427.2x)” and the pIC50 was 5.10. At HDAC3, the “HDAC3 fold over HDAC6 IC50 (selectivity for HDAC6)” value is “(656.2x)” and the pIC50 is 4.91.

For the compound `CC(C)(Nc1ncc(C(=O)NO)cn1)c1ccc(C(F)(F)F)cc1` [Compound 74], at HDAC6, the pIC50 was 8.22. For the same compound, on HDAC1, the “HDAC1 fold over HDAC6 IC50 (selectivity for HDAC6)” value is “(147.5x)” and the pIC50 was 6.05. Also, on HDAC2, the “HDAC2 fold over HDAC6 IC50 (selectivity for HDAC6)” value is “(168.4x)” and the negative logarithm of the IC50 (pIC50) was 5.99. In addition, at HDAC3, the “HDAC3 fold over HDAC6 IC50 (selectivity for HDAC6)” value is reported as “(394.2x)” and the pIC50 was 5.62.

For orientation: pIC50 means the negative decadic logarithm of the IC50, by convention in mol/L.
